From ChEMBL document CHEMBL4184264, “Heterobicyclic inhibitors of transforming growth factor beta receptor I (TGFβRI)” (Bioorg Med Chem, 2018) come the findings set out here.

The nature of series [1]: Metabolic stability in human liver microsomes assessed as compound remaining by LC-MS/MS analysis. It is filed as ADME, microsome. For orientation: Microsomes from liver hold many membrane-bound enzymes, among them those of drug oxidation.
Series [2] is described as follows: Metabolic stability in rat liver microsomes assessed as compound remaining by LC-MS/MS analysis. It is filed as ADME, microsome.
Series [3] can be described thus: Metabolic stability in mouse liver microsomes assessed as compound remaining by LC-MS/MS analysis. The format is ADME, microsome.
A short description of series [4]: Inhibition of TGFbetaR1 in mink Mv1Lu cells assessed as TGFbeta-stimulated PSMAD2 phosphorylation preincubated for 1 hr followed by TGFbeta addition measured after 15 mins. The conditions noted are these: Neogale vison. It is filed as cell-based, Neovison vison.
The subject of the next series is Mus musculus. The series is described as follows: In vivo inhibition of TGFbetaR1 in po dosed BALB/c mouse implanted with mouse 4T1 cells assessed as reduction in phosphorylated PSMAD levels after 7 hrs. The format is functional, organism-based.
The next series deals with TGF-beta receptor type-2 (Homo sapiens, UniProt P37173). Nature of the series: Inhibition of wild type His-tagged TGFbetaR2 (unknown origin) after 1 hr by HTRF assay.
Series [5] in a line: Solubility of the compound in DMSO. The format is physicochemical.

Chain of TGF-beta receptor type-2 (P37173 whole entry): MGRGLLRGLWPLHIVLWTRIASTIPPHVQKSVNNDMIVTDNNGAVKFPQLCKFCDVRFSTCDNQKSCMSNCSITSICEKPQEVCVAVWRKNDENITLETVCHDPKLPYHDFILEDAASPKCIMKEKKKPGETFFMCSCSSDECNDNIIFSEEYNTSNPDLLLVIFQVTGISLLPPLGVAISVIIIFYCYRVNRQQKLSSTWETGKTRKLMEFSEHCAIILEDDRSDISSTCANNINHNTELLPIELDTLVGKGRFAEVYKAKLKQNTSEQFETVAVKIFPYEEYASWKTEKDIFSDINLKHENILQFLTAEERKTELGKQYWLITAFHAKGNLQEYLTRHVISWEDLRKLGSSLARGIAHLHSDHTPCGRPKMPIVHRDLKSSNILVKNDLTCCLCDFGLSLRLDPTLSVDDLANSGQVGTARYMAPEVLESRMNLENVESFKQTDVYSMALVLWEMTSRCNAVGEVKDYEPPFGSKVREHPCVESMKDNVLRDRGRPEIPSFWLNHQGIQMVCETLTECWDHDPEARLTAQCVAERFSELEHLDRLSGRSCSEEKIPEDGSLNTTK

For orientation: IC50 means the concentration that inhibits the measured activity by half. As to `CC(=O)Nc1cc(Nc2nc(-c3cccc(C(F)(F)F)n3)nn3cccc23)ccn1`, the Stability in series [1] was found to be 75%; in series [2], 35%; in series [3], 49%. In addition, in series [4], the IC50 amounted to 180 nM. Further, in the series with Mus musculus, the Activity result is “Dose-dependent effect”.
In the case of `N[C@H]1CC[C@@H](NCc2ccn3nc(-c4ccccn4)nc(Nc4ccncc4F)c23)CC1`, the Stability in series [1] came out at 86%; in series [2] it was 72%; in series [3], 48%. In addition, the IC50 in series [4] worked out at 76 nM.
Turning to `Fc1cnccc1Nc1nc(-c2cccc(C(F)(F)F)n2)nc2[nH]ccc12`, the Stability in series [1] is given as 36%; in series [3], 28%. In addition, the IC50 in series [4] came out at 47 nM.
Turning to `Cc1cccc(-c2nc(Nc3ccncc3F)c3cccn3n2)n1`, the Stability is 11% in series [1], 35% in series [2] and 6% in series [3]. In addition, the IC50 in series [4] stood at 180 nM.
`Cc1cccc(-c2nn3c(c2-c2ccnc4ccc(C(N)=O)cc24)CCC3)n1` [GALUNISERTIB] came in with an IC50 against TGF-beta receptor type-2 of 1300 nM.
Regarding `Cc1cccc(-c2nc(Nc3ccnc4ccccc34)c3cccn3n2)n1`, in series [5], the solubility result was “Insoluble”.
Consider `Fc1cnccc1Nc1nc(-c2ccccn2)nn2cccc12`, for which the Stability in series [1] came to 54%; in series [2], 54%; in series [3], 19%. The IC50 in series [4] was determined as 500 nM.
With `O=C(CN1CCN(CCO)CC1)Nc1cc(Nc2nc(-c3cccc(C(F)(F)F)n3)nn3cccc23)ccn1`, the values for the Stability in series [1] and in series [3] were 70% and 77%, respectively. For the same compound, in series [4], the IC50 stood at 220 nM.
Regarding `c1ccc(-c2nn3c(c2-c2ccnc4cc(OCCN5CCOCC5)ccc24)CCC3)nc1`, the IC50 is 190 nM against TGF-beta receptor type-2 and 750 nM in series [4]. The Stability in series [1] is listed as 58%; in series [2], 46%; in series [3] it was 36%.
Turning to `Cc1cccc(-c2nc(Nc3ccncc3C(=O)NC(C)C)c3cccn3n2)n1`, the Stability in series [1] is 65%; in series [2], 67%; in series [3], 26%. In addition, the IC50 in series [4] was over 10000 nM.
Taken in the same sequence, the figures for `CC(=O)Nc1cc(Nc2nc(-c3cccc(C(F)(F)F)n3)nc3[nH]cnc23)ccn1` were 85%, 77%, 59% and 130 nM.
`N[C@H]1CCN(Cc2ccn3nc(-c4ccccn4)nc(Nc4ccncc4F)c23)C[C@@H]1O`: the results for the Stability in series [1], in series [2] and in series [3] were 85%, 90% and 82%, respectively. The IC50 in series [4] is 390 nM.
Take `CC(=O)Nc1cc(Nc2nc(-c3cccc(C(F)(F)F)n3)nn3cccc23)c(F)cn1`: the Stability in series [1] was determined as 78%; in series [2], 68%; in series [3] it was 66%.
Regarding `FC(F)(F)c1cccc(-c2nc(Nc3ccncc3)c3cccn3n2)n1`, the Stability in series [1] turned out to be 24%; in series [2], 48%; in series [3], 13%. Further, the IC50 in series [4] is 710 nM.
Turning to `N[C@@H]1CCN(Cc2ccn3nc(-c4ccccn4)nc(Nc4ccncc4F)c23)C[C@H]1O`, the results for the Stability in series [1], in series [2] and in series [3] were 93%, 92% and 100%, respectively. In addition, the IC50 in series [4] was 310 nM.
In the case of `Cc1cccc(-c2nc(Nc3ccncc3)c3cccn3n2)n1`, the Stability is 11% in series [1], 28% in series [2] and 1% in series [3]. Moreover, the IC50 in series [4] was 99 nM. For the same compound, the solubility entry in series [5] was “Soluble”.
For the compound `Cc1cccc(-c2nc(Nc3c(F)cncc3F)c3cccn3n2)n1`, the Stability in series [1] is 15%; in series [2] it was 39%; in series [3], 7%. In addition, the IC50 in series [4] came to 1200 nM.
Taken in the same sequence, the figures for `Cc1cccc(-c2nc(Nc3ccncc3F)c3cc[nH]c3n2)n1` were 25%, 38%, 2% and 24 nM.
Take `Cc1cccc(-c2nc(Nc3ccncc3F)c3nc[nH]c3n2)n1`: the Stability is 38% in series [1], 47% in series [2] and 4% in series [3]. Further, in series [4], the IC50 amounted to 150 nM.
For the compound `COc1cccc(-c2nc(Nc3ccncc3)c3cccn3n2)n1`, the figures for the Stability in series [1], in series [2] and in series [3] were 12%, 36% and 2%, respectively. Moreover, the IC50 in series [4] was 3900 nM.
Take `c1ccc(-c2nc(Nc3ccncc3)c3cccn3n2)nc1`: the values for the Stability in series [1], in series [2] and in series [3] were 33%, 33% and 1%, respectively. Besides, the IC50 in series [4] was 350 nM.
On to `CC(=O)Nc1cc(Nc2nc(-c3cccc(C(F)(F)F)n3)nc3[nH]ccc23)ccn1`, for which the Stability is given as 81% in series [1], 80% in series [2] and 27% in series [3]. The IC50 in series [4] amounted to 43 nM.
